# Source: US4540697A, “Aminopropanol derivatives of 2-hydroxy-β-phenyl-propiophenones, pharmaceutical compositions and use” (priority 1984, dated 1985)
# Counter-ions that a name gives are not always drawn.
# Experiments:
# [1] = test system: aconitine arrhythmia in rats; experiment: Antiarrhythmic action on aconitine arrhythmia in rats; format: in vivo, rat (strain: Sprague Dawley); conditions: Rattus norvegicus, po, 1 h, peroral administration, aconitine infused 60 minutes after substance, read-out: ED 50%: dose which causes a 50% extension in the period of aconitine infusion
# Experimental: Moreover, the novel compounds were administered orally or intravenously to male rats (strain: Sprague Dawley, weight: 200-230 g) to determine the antiarrhythmic activity. 45 minutes later, the animals were anesthetized by intraperitoneal administration of 100 mg/kg of thiobutabarbital sodium. Aconitine served as the arrhythmogenic substance, and was infused intravenously at a dosage rate of 0.005 mg/kg/minute 60 minutes after administration of the substance. In untreated animals (n=52), arrhythmias appeared in the ECG after 2.74±0.07 minutes. These arrhythmias can be delayed by antiarrhythmic drugs, as a function of the dose.
# The dose which extends the infusion period by 50% (ED 50%) was determined from the linear relationship between the logarithm of the dose (mg/kg) of the trial substance and the relative extension of the period of aconitine infusion (Δ%).
# (§1) The known antiarrhythmic drug propafenone [2-(2-hydroxy-3-propylamino-propoxy)-3-phenyl-propiophenone hydrochloride]was used as the comparative substance.
# [2] = test system: isolated left atrium of male guineapigs; experiment: Antiarrhythmic action on the isolated guineapig atrium (drop in maximum rhythmicity); set-up: species or system guineapig (strain: Pirbright white); conditions: Cavia porcellus, Tyrode's solution pH 7.4, 32° C., read-out: Maximum rhythmicity (ED 50%): concentration which causes a 50% drop in the maximum rhythmicity
# Experimental: The antiarrhythmic activity of the compounds according to the invention was determined on the isolated left atrium of male guineapigs (strain: Pirbright white, weight: 350 to 450 g).
# Atria suspended in an organ bath (volume: 125 ml) with carbogen-saturated Tyrode's solution (pH 7.4, 32° C.) were pre-loaded with 1.0 g and subjected to square-wave pulses having a base rhythm of 1 Hz and twice the excitation threshold (rheobase: 0.2-1.4 V, chronaxia: 0.3-0.5 msec).
# The frequency (Hz) up to which contraction follows each stimulus (maximum rhythmicity, MR) was determined, by automatically and continuously increasing the frequency, as a criterion of the antiarrhythmic activity. The concentration which causes a drop in the maximum rhythmicity of 50% (EC 50%) was calculated from the linear relationship between the logarithm of the concentration (mg/l) and the relative drop in the maximum rhythmicity (%).
# as §1
compound,measurement,setting,value
"O=C(CCc1ccccc1)c1ccccc1OCC(O)CN1CCC(O)CC1 (stereo not drawn) [Example 23, 2-[2'-Hydroxy-3'-(4-hydroxypiperidino)-propoxy]-β-phenyl-propiophenone hydrochloride]",ED50,[1],31.6 mg/kg
same,EC50,[2],1.64 µg/mL
"O=C(CCc1ccccc1)c1ccccc1OCC(O)CN1CCC(O)(c2ccccc2)CC1 (stereo not drawn) [Example 24, 2-[2'-Hydroxy-3'-(4-hydroxy-4-phenyl-piperidino)-propoxy]-β-phenyl-propiophenone hydrochloride]",ED50,[1],25.4 mg/kg
same,EC50,[2],2.65 µg/mL
"CN1CCN(CC(O)COc2ccccc2C(=O)CCc2ccccc2)CC1 (stereo not drawn) [Example 25, 2-[2'-Hydroxy-3'-(4-methyl-piperazin-1-yl)-propoxy]-β-phenyl-propiophenone bis-hydrochloride]",ED50,[1],11.2 mg/kg
same,EC50,[2],1.01 µg/mL
"CCCNCC(O)COc1ccccc1C(=O)CCc1ccc(F)cc1 (stereo not drawn) [Example 33, 2-(2'-Hydroxy-3'-n-propylamino-propoxy)-β-(4-fluorophenyl)-propiophenone hydrochloride]",ED50,[1],24.5 mg/kg
same,EC50,[2],2.05 µg/mL
"CCCNCC(O)COc1ccccc1C(=O)CCc1ccc(C)cc1 (stereo not drawn) [Example 34, 2-(2'-Hydroxy-3'-n-propylamino-propoxy)-β-(4-methylphenyl)-propiophenone hydrochloride]",ED50,[1],21.5 mg/kg
same,EC50,[2],1.72 µg/mL
"CCCNCC(O)COc1ccccc1C(=O)CCc1ccc(N(C)C)cc1 (stereo not drawn) [Example 35, 2-(2'-Hydroxy-3'-n-propylamino-propoxy)-β-(4-dimethylaminophenyl)-propiophenone hydrochloride]",ED50,[1],1.99 mg/kg
same,EC50,[2],1.65 µg/mL
"CCCNCC(O)COc1ccccc1C(=O)CCc1cc(OC)c(OC)c(OC)c1 (stereo not drawn) [Example 49, 2-(2'-Hydroxy-3'-n-propylaminopropoxy)-β-(3,4,5-trimethoxyphenyl)-propiophenone]",ED50,[1],31.6 mg/kg
same,EC50,[2],1.82 µg/mL
"CN(C)c1ccc(CCC(=O)c2ccccc2OCC(O)CN2CCCCC2)cc1 (stereo not drawn) [Example 55, 2-(2'-Hydroxy-3'-piperidino-propoxy)-β-(4-dimethylaminophenyl)-propiophenone]",ED50,[1],5.7 mg/kg
same,EC50,[2],0.854 µg/mL
"CN(C)c1ccc(CCC(=O)c2ccccc2OCC(O)CNC2CC2)cc1 (stereo not drawn) [Example 57, 2-(2'-Hydroxy-3'-cyclopropylamino-propoxy)-β-(4-dimethylaminophenyl)-propiophenone hydrochloride]",ED50,[1],1.78 mg/kg
same,EC50,[2],2.04 µg/mL
"CCCCNCC(O)COc1ccccc1C(=O)CCc1ccc(N(C)C)cc1 (stereo not drawn) [Example 58, 2-(2'-Hydroxy-3'-n-butylamino-propoxy)-β-(4-dimethylaminophenyl)-propiophenone hydrochloride]",ED50,[1],2.33 mg/kg
same,EC50,[2],1.92 µg/mL
"COCC(C)NCC(O)COc1ccccc1C(=O)CCc1ccc(N(C)C)cc1 (stereo not drawn) [Example 60, 2-[2'-Hydroxy-3'-(3-methoxy-prop-2-ylamino)-propoxy]-β-(4-dimethylaminophenyl)-propiophenone hydrochloride]",ED50,[1],3.25 mg/kg
same,EC50,[2],1.82 µg/mL
"CN1CCN(CC(O)COc2ccccc2C(=O)CCc2ccc(N(C)C)cc2)CC1 (stereo not drawn) [Example 67, 2-[2'-Hydroxy-3'-(4-methyl-piperazin-1-yl)-propoxy]-β-(4-dimethylaminophenyl)-propiophenone hydrochloride]",ED50,[1],2.15 mg/kg
same,EC50,[2],0.658 µg/mL
